Biological target: T1, 14–3-3ζ (Homo sapiens, UniProt P63104)
T1 construct: gene YWHAZ
Assay: SPR (Biacore T200, […]-3ζ ab87361 captured on NTA chip); supported by Pro-conjugated magnetic bead pull-down from C4-2B lysate
Type: binding

T1 sequence (P63104 whole entry): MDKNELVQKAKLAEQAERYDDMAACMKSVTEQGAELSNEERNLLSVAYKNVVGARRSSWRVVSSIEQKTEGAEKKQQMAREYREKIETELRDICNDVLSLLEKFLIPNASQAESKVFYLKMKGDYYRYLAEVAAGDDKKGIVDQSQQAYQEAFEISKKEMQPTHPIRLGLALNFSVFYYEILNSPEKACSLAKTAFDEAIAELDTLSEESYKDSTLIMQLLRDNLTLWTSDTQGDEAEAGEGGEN

CC[C@@H](C(=O)[C@@H](C)[C@@H](O)[C@H](C)[C@@H]1O[C@@H]([C@@H](CC)C(=O)O)CC[C@@H]1C)[C@H]1O[C@]2(C=C[C@@H](O)[C@]3(CC[C@@](C)([C@H]4CC[C@](O)(CC)[C@H](C)O4)O3)O2)[C@H](C)C[C@@H]1C [Pro, Procoxacin] gave a Kd of 1.93 µM.

— publication PMC9909988, “Procoxacin bidirectionally inhibits osteoblastic and osteoclastic activity in bone and suppresses bone metastasis of prostate cancer” (Journal of Experimental & Clinical Cancer Research : CR, 2023)
